The test system of the assay is PD patient. In words: EMG analysis during rest, postural and writing activity in the same subject before and after medication (monitoring of drug effectiveness). The format is in vivo. The settings on record: after meds. The source says: Technology for detecting Parkinson's disease (PD) comprises of a group of indicators (endpoints) that are based on various Electromyography (EMG) properties of hand muscles during gesture writing as well as kinematics and pen traces. Gesture writing is the type of writing, when part of the time a pen is touching the tablet (writing activity) and part of the time a pen is not touching the tablet (postural activity). During postural period a hand is held against gravity. Postural EMG activity can be found programmatically by analyzing the writing activity, since it is known from the tablet recording when a pen was touching a tablet and not touching the tablet. In addition, EMG at rest is recorded, while both hands are lying on a table. The properties of resting EMG signals are also included in the analysis. Two differential channels of EMG are recorded from each hand. EMG recordings are synchronized with the input from the tablet PC.
In one example, 100 trials were administered. A beep sound denotes the end of one trial and beginning of the next trial. Writing activity was analyzed while a subject was writing a number “3” in cursive. The length of each trial was 5 sec. During “rest,” trials with a length of 5 sec each were generated. Postural trials were selected by a computer program. 100 trials for each type of activity were recorded. A large number of trials (around 100) is very important in the analysis, because muscle activity has high variability. A statistical ensemble is created in order for statistical analysis to be applied. A confidence interval was calculated to confirm the existence of peaks in Fast Fourier Transform (FFT).
Condition 1: Resting. The experimental session started with a recording where the participants were resting with both hands, forearms, and elbows on the table. During one continuous recording the experimenter triggered at least 25 trials of 5 seconds by touching the electronic pen on the tablet after each beep. In total 4 such files were recorded with 1-minute pauses in between, yielding 100 resting trials in total. During the pause the participants rested their hands on their knees.
Condition 2: Character-Writing and postural control of pen lift. After the resting session the participants were instructed to wait with the pen lifted while the entire forearm including elbow rested on the table. Upon hearing the beep participants were to touch the tablet with the pen and write character “3” as fast and convenient as possible and then lift the pen until the next beep. The next beep was automatically generated 4 seconds after the pen lift. As the participants were instructed to keep their forearms resting on the table the thumb muscles were optimally involved in producing character “3”. The non-writing arm rested on the table as in the resting condition. The writing segment was defined as the 5-second segment starting 2 seconds before the pen touched the writing surface till 3 seconds after that (See FIG. 3). We also defined a postural segment starting when the pen was lifted till the beep that was generated 4 seconds later. Thus each trial included a writing segment and a postural segment. The experimenter ensured that after the first trial at least 25 good trials were recorded. The experimenter ensured that at least 25 successful trials were recorded. This means that the subject had to write a complete character and only after that they lift up the pen and waited for a beep to start writing another character. All trials, including incidentally failed trials (except first and last one) were included in the analysis. After recording 25 acceptable trials, the participant was instructed to pause for 1 minute with both hands on the knees like in the resting condition. In total 4 files of 5 minutes were recorded yielding 100 trials.
Our Norconnect DH software (written in MATLAB, MathWorks, Natick, Mass., USA) processed the EMGs and handwriting kinematics to quantify 8 PD indicators (See Table 2). […]

[1] abbreviates: EMG spectral peak, in 4 channels.

The results in this text go back to patent US20160262664A1, “Detection Of Disease Using Gesture Writing Bio-Markers” (priority 2015, published 2016).

Turning to `C#CCN[C@@H]1CCc2ccccc21` [Rosageline], under setting [1], the “Tremor, Postural” value is reported as “No (in 4” and the “Tremor, Rest” value is recorded as “No (in 4”. Besides, the “Stiffness, spectral density maximum, Postural, ch3” value (ch3 left hand) is given as “ch.3: 2 mV”. In addition, the “Stiffness, spectral density maximum, Postural, ch4” value (ch4 left hand) is on record as “ch4: 1.1 (mV)”. Moreover, the “Weakness, mean intensity, Writing, ch1” value (criterion <0.005 mV^2, ch1) was “ch1: 0.003 mV^2”. In addition, the “Weakness, mean intensity, Writing, ch2” value (criterion <0.005 mV^2, ch2) is on record as “ch2: 0.018 (mV^2)”. The “Stiffness, spectral density maximum, Rest, ch1” value (criterion >0.5 mV, ch1 right hand) is reported as “ch1: 2 mV”. Also, the “Stiffness, spectral density maximum, Rest, ch2” value (criterion >0.5 mV, ch2 right hand) is “ch2: 2.4 mV”. Further, the “Stiffness, spectral density maximum, Rest, ch3” value (criterion >0.5 mV, ch3 left hand) was “ch3: 0.6 mV”. Moreover, the “Stiffness, spectral density maximum, Rest, ch4” value (criterion >0.5 mV, ch4 left hand) is reported as “ch4: 0.6 (mV)”. In addition, where the note is “criterion >1 mV, ch1 right hand”, the “Stiffness, spectral density maximum, Postural, ch1” value is “ch1: 2 mV”. Further, the “Stiffness, spectral density maximum, Postural, ch2” value (criterion >1 mV, ch2 right hand) is given as “ch2: 7.5 mV”.
